Test results published in patent EP2346328B1, “USE OF COSTIC ACID OR EXTRACTS OF DITTRICHIA VISCOSA AGAINST VARROA DESTRUCTOR” (Katerinopoulos, E. Haralambos, priority 2008, dated 2009).

Legend:
V. destructor = test: In vivo vial experiments with V. destructor: mite mortality on exposure to treated filter paper; design: species or system Varroa destructor
Experimental: In vivo Experiments with V. destructor. The mites (V. destructor) were collected from colonies of A. mellifera. For mite collection two different methods were used: The first method involved removal of the mites from infected adult bees using a soft brush with the help of a stereoscope. In method b) infected adult honeybees were transferred directly from bee frames into a wire-screen cylinder. Then the cylinder was placed inside a second Plexiglas cylinder and CO2 was released for 5 min with a flow rate of 5 l/min causing anaesthesia to the mites (as well as to the bees). The whole apparatus was then shaken several times to separate the mites from the bees. In a few minutes they had recovered from the effect of the anaesthesia.^39
Using a stereoscope binocular set varroa was placed in 20 mL glass vials. Stock solutions of the extraction materials were prepared in acetone in 10 mg/mL concentrations. In each experiment 20, 60, or 100 microliter aliquots of the stock solution were placed on filter paper adjusted to the cups of 20 ml vials, each containing five living mites. Acetone was used in the control experiments which were performed in five replicates. In both cases the solvent was allowed to evaporate before covering the vials. The vials were kept in an incubator at 37 C. Mortality of mites was recorded under a stereoscope binocular set after 5, 8, 12, and 19 hours.

[1] = Cytotoxicity assay in human cells (WST-1); format: cell-based; conditions: HUVEC, 24 h exposure, WST-1 absorbance after 4h and 24h, read-out: concentrations at which not cytotoxic
Experimental: Example 4.Cytotoxicity assays in human cells. Cytotoxicity of costic acid was measured in human umbilical vein endothelial cells (HUVEC), using the Cell Proliferation Reagent WST-1 (Cat. No. 13396300, Roche). The assay was performed according to the instructions protocol. Cells (7500 per well) were exposed to different concentrations of costic acid for 24 h before adding the WST-1 reagent. After 4h and again after 24h the absorbance was measured using an Optimax UV/VIS spectrometer (wavelengths: 440nm and 650nm). Costic acid was not cytotoxic at concentrations up to 230 micromolar.

varroa = test: Field tests on bee populations: count of dead varroa after spraying; format: in vivo, Varroa destructor; conditions: after ten days; commercial acaricides; sprayed directly on the bees (100 mL per group, oxalic acid 70 mL)
Experimental: Example 5. Field Tests on bee populations. Field test were conducted using 40 bees on each trial at various locations on the island of Crete such as the Lassithi Plateau and the Messara Plains. In the field tests, Group B' extract was used in a solution of 1 g of this extract in 1 ml ethanol that was further diluted with water to a total volume of 1 L. A second solution was prepared as described above, using 2 g of Group B' mixture. For comparison purposes, each bee population was divided in […] groups. Two of these groups were treated with commercial acaricides A fifth, control group, was sprayed with deionized water. As known acaricide preparations were used a) BAYVAROL (active ingredient: Flumethrine) and b) a 4% solution of oxalic acid in 50% sugar solution. The total volume of solutions that were sprayed directly on the bees was 100 mL per group. In the case of the oxalic acid solution, the volume was 70 mL. Dead varroa was collected on a sheet of paper covered with Vaseline and sunflower oil. After ten days, the number of dead varroa was counted. Considering the number of dead varroa in the oxalic acid experiment as 100%, the respective numbers were 60% for either extract preparation, 55% for BAYVAROL and 8% for the control.

Structure (SMILES) | optimal concentration of the stock solution (V. destructor; 10 mg/mL stock solution in acetone, higher concentrations did not enhance activity) | percent mortality of varroa (V. destructor; Fig. 1, 20 or 60 or 100 microliters of 10mg/mL acetone solutions) | time after application of the largest activity difference between costic acid and total extract (V. destructor; Fig. 2, activity as a function of time of application) | acaricidal activity (V. destructor; in vivo vial experiments, fractions and isolated components of D. viscosa extract) | MNTC at 24 h [1] | number of dead varroa, oxalic acid experiment as 100% (varroa)
C=C(C(=O)O)C1CCC2(C)CCCC(=C)C2C1 (stereo not drawn) [costic acid] | 60 microliter per vial | increases drastically | 8 h | acaricidal activity rested in costic acid | ≥ 230 µM | 
O=C(O)C(=O)O [oxalic acid] |  |  |  |  |  | 100%
